Like-named read-outs stand apart in the source and are kept apart here.
How the values were obtained:
HIV-1NL4-3 = test: HIV-1 infectivity assay in TZM-bl reporter cell line (LTR-luciferase, 48 h); format: cell-based; conditions: for inhibition at 1 µM: Human immunodeficiency virus 1, TZM-bl
How it was run: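 TZM-bl cells infected with HIV-1NL4-3 ± compound (1 μM), luciferase measured at 48 h. Normalization: DMSO/wild-type = 0% inhibition, DMSO/Nef-defective = 100% of Nef-dependent effect.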

TZM-bl cell line = format: cell-based; conditions: 1 μM
How it was run: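 Nef-dependent infectivity in TZM-bl cells: HIV-1NL4-3 infection with 1 μM compound, luciferase read at 48 h, normalized against DMSO wild-type and Nef-defective controls. Compound cytotoxicity in uninfected cells measured by Cell Titer Blue.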

HIV-1 NefNL4-3 = HIV-1 NefNL4-3 (Human immunodeficiency virus type 1 group M subtype B, UniProt P03406, A33V/T15A/T51N/V11I); test: Surface plasmon resonance binding to recombinant full-length Nef (NL4-3); conditions: for RU30/RUNef (extent of binding): response units at 30 μM relative to Nef immobilized on the SPR chip
[1] = 1.0 μM, TZM-bl reporter cell line, Table 4, read-out: % Infectivity Inhibition
[2] = KD, M, Table 4, SPR fit 1:1 Langmuir, KD = koff/kon
[3] = Table 4, 1:1 Langmuir fit, T = 1/koff
[4] = KD, M, Table 4, SPR fit 2-step induced fit, KD = koff/kon × koff2/(koff2 + kon2)
[5] = Table 4, 2-step induced fit, T = 1/koff2
[6] = 48 h, Table 1, TZM-bl cells, 1 μM, 48 h, 100% = Nef-defective HIV-1, read-out: HIV-1 Infectivity % Inhibition Norm. to Δ-Nef @ 1 μM
[7] = Table 1, 1:1 Langmuir fit where the KD2 cell says '1 to 1 fitting', else 2-site fit
[8] = Nef NL4-3 Binding, SPR 2-state fitting KD, Table 1, 2-step induced-fit model
[9] = read-out: Nef NL4-3 Binding, SPR 1:1 or 2-site fitting KD2, Table 1, 2-site fit, second component

Row | SMILES | inhibition at 1 µM (HIV-1NL4-3; [1]) [%] | % Cell Viability (TZM-bl cell line; human) [%] | RU30/RUNef (extent of binding) (HIV-1 NefNL4-3) | Kd (HIV-1 NefNL4-3; [4]) [µM] | T, minutes (residence time) (HIV-1 NefNL4-3; [5]) | inhibition at 1 µM (HIV-1NL4-3; [6]) [%] | Percent Viability @ 1 μM (TZM-bl cells) (TZM-bl cell line; human) [%] | Kd (HIV-1 NefNL4-3) [µM] | Kd (HIV-1 NefNL4-3; [8]) [µM] | also measured
1 | Oc1c(CC2CCOCC2)c(-c2ccccc2)nn1-c1nc2ccccc2[nH]1 [Compound I-183, 1-(1H-1,3-benzodiazol-2-yl)-4-[(oxan-4-yl)methyl]-3-phenyl-1H-pyrazol-5-ol] | 37.8 | 100 | 1.71E- 03 |  |  |  |  |  |  | Kd (HIV-1 NefNL4-3; [2]): 2.27 µM; T, minutes (residence time) (HIV-1 NefNL4-3; [3]): 7.61E + 00 minutes
2 | Oc1c(CC2CCOCC2)c(-c2cccc(F)c2)nn1-c1nc2ccccc2[nH]1 [Compound I-184, 1-(1H-1,3-benzodiazol-2-yl)-3-(3-fluorophenyl)-4-[(oxan-4-yl)methyl]-1H-pyrazol-5-ol] | 100 | 100 | 2.48E- 03 |  |  |  |  |  |  | Kd (HIV-1 NefNL4-3; [2]): 3.52 µM; T, minutes (residence time) (HIV-1 NefNL4-3; [3]): 6.46E + 00 minutes
3 | Oc1c(CC2CCOCC2)c(-c2ccc(F)c(F)c2)nn1-c1nc2ccccc2[nH]1 [Compound I-185, 1-(1H-1,3-benzodiazol-2-yl)-3-(3,4-difluorophenyl)-4-[(oxan-4-yl)methyl]-1H-pyrazol-5-ol] | 100 | 95.1 | 4.57E- 03 | 3.4 | 1.04E + 01 minutes |  |  |  |  | 
4 | Oc1c(CC2CCOCC2)c(-c2ccccc2F)nn1-c1nc2ccccc2[nH]1 [Compound I-186, 1-(1H-1,3-benzodiazol-2-yl)-3-(2-fluorophenyl)-4-[(oxan-4-yl)methyl]-1H-pyrazol-5-ol] | 61.5 | 99.3 | 1.62E- 02 | 11.7 | 7.72E + 00 minutes |  |  |  |  | 
5 | Oc1c(CC2CCOCC2)c(-c2ccc(F)cc2F)nn1-c1nc2ccccc2[nH]1 [Compound I-187, 1-(1H-1,3-benzodiazol-2-yl)-3-(2,4-difluorophenyl)-4-[(oxan-4-yl)methyl]-1H-pyrazol-5-ol] | 20.2 | 100 | 8.62E- 03 | 3.07e-05 | 1.02E + 06 minutes |  |  |  |  | 
6 | CC(C)(C)OC(=O)N1CCC(Cc2nn(-c3nc4ccccc4[nH]3)c(O)c2CCc2ccc(F)cc2)C1 (stereo not drawn) [Compound I-206, tert-butyl 3-{[1-(1H-1,3-benzodiazol-2-yl)-4-[2-(4-fluorophenyl)ethyl]-5-hydroxy-1H-pyrazol-3-yl]methyl}pyrrolidine-1-carboxylate] |  |  |  |  |  | 35.2 | 90.6 |  |  | Nef NL4-3 Binding, SPR 1:1 or 2-site fitting KD1 (HIV-1 NefNL4-3; [7]): No Interaction
7 | CC(C)(C)OC(=O)c1ccc(-c2nn(-c3nc4ccccc4[nH]3)c(O)c2CCc2ccc(F)cc2)cc1 [Compound I-208, tert-butyl 4-[1-(1H-1,3-benzodiazol-2-yl)-4-[2-(4-fluorophenyl)ethyl]-5-hydroxy-1H-pyrazol-3-yl]benzoate] | 39.2 | 90.6 | 1.63E- 02 | 67.8 | 3.95E- 02 minutes | 39.2 | 90.6 | 13.8 | 67.8 | 
8 | CC(C)(C)OC(=O)N1C[C@@H]2[C@H](C1)[C@H]2c1nn(-c2nc3ccccc3[nH]2)c(O)c1CCc1ccc(F)cc1 [Compound I-209, tert-butyl 6-[1-(1H-1,3-benzodiazol-2-yl)-4-[2-(4-fluorophenyl)ethyl]-5-hydroxy-1H-pyrazol-3-yl]-3-azabicyclo[3.1.0]hexane-3-carboxylate] | 4.2 | 100 | 8.59E- 03 | 4.83 | 3.81E- 01 minutes | 4.2 | 100.1 | 0.776 | 5.83 | 
9 | CC(C)(C)OC(=O)N1CCN(Cc2nn(-c3nc4ccccc4[nH]3)c(O)c2CCc2ccc(F)cc2)CC1 [Compound I-211, tert-butyl 4-{[1-(1H-1,3-benzodiazol-2-yl)-4-[2-(4-fluorophenyl)ethyl]-5-hydroxy-1H-pyrazol-3-yl]methyl}piperazine-1-carboxylate] | 0 | 100 | 2.89E- 03 |  |  | -19.4 | 103.5 | 7.22 |  | Kd (HIV-1 NefNL4-3; [2]): 7.22 µM; T, minutes (residence time) (HIV-1 NefNL4-3; [3]): 1.65E + 00 minutes
10 | CC(C)(C)OC(=O)NCc1nn(-c2nc3ccccc3[nH]2)c(O)c1CCc1ccc(F)cc1 [Compound I-212, tert-butyl N-{[1-(1H-1,3-benzodiazol-2-yl)-4-[2-(4-fluorophenyl)ethyl]-5-hydroxy-1H-pyrazol-3-yl]methyl}carbamate] |  |  |  |  |  | 50.9 | 92.9 | 0.538 | 2.32 | Kd (HIV-1 NefNL4-3; Nef NL4-3 Binding, SPR 1:1 or 2-site fitting KD2, Table 1, 2-site fit, second component): 1.48 µM
11 | CC(C)(C)OC(=O)NC1(c2nn(-c3nc4ccccc4[nH]3)c(O)c2CCc2ccc(F)cc2)CCOCC1 [Compound I-213, tert-butyl N-{4-[1-(1H-l,3-benzodiazol-2-yl)-4-[2-(4-fluorophenyl)ethyl]-5-hydroxy-1H-pyrazol-3-yl]oxan-4-yl}carbamate] |  |  |  |  |  |  |  |  |  | HIV-1 Infectivity % Inhibition Norm. to Δ-Nef @ 1 μM (HIV-1NL4-3; Table 1, TZM-bl cells, 1 μM, 48 h, 100% = Nef-defective HIV-1): −4.6%; Percent Viability @ 1 μM (TZM-bl cells) (TZM-bl cell line; Table 1, uninfected TZM-bl cells, Cell Titer Blue): 97.6%; Kd (HIV-1 NefNL4-3; Table 1, 1:1 Langmuir fit where the KD2 cell says '1 to 1 fitting', else 2-site fit, read-out: Nef NL4-3 Binding, SPR 1:1 or 2-site fitting KD1): 1.6 µM
12 | CC(C)(C)OC(=O)N1CCCC(Cc2nn(-c3nc4ccccc4[nH]3)c(O)c2CCc2ccc(F)cc2)C1 (stereo not drawn) [Compound I-214, tert-butyl 3-{[1-(1H-1,3-benzodiazol-2-yl)-4-[2-(4-fluorophenyl)ethyl]-5-hydroxy-1H-pyrazol-3-yl]methyl}piperidine-1-carboxylate] |  |  |  |  |  | -5.5 | 99.9 | 0.0208 |  | 
13 | CC(C)(C)OC(=O)N1CCC(c2nn(-c3nc4cccc(Cl)c4[nH]3)c(O)c2CCc2ccc(F)cc2)CC1 [Compound I-217, tert-butyl 4-[1-(7-chloro-1H-1,3-benzodiazol-2-yl)-4-[2-(4-fluorophenyl)ethyl]-5-hydroxy-1H-pyrazol-3-yl]piperidine-1-carboxylate] |  |  |  |  |  | 0.1 | 104.9 |  |  | Nef NL4-3 Binding, SPR 1:1 or 2-site fitting KD1 (HIV-1 NefNL4-3; [7]): No Interaction
14 | CC(C)(C)OC(=O)N1CCC(CCc2c(C3CC3)nn(-c3nc4cc(Cl)ccc4[nH]3)c2O)CC1 [Compound I-218, tert-butyl 4-{2-[1-(5-chloro-1H-1,3-benzodiazol-2-yl)-3-cyclopropyl-5-hydroxy-1H-pyrazol-4-yl]ethyl}piperidine-1-carboxylate] | 0 | 97.9 | 1.32E- 02 | 0.692 | 1.02E + 01 minutes | -7 | 97.9 | 1.12 | 0.692 | 
15 | CC(C)(C)OC(=O)N1CCC(c2nn(-c3nc4cc(F)c(F)cc4[nH]3)c(O)c2CCc2ccc(F)cc2)CC1 [Compound I-219, tert-butyl 4-[1-(5,6-difluoro-1H-1,3-benzodiazol-2-yl)-4-[2-(4-fluorophenyl)ethyl]-5-hydroxy-1H-pyrazol-3-yl]piperidine-1-carboxylate] | 100 | 79.2 | 4.76E- 03 | 0.0493 | 4.93E + 02 minutes | 109 | 79.2 |  | 0.0493 | Kd (HIV-1 NefNL4-3; [9]): 3.29 µM
16 | CC(C)(C)OC(=O)N1CCC(c2nn(-c3nc4cccnc4[nH]3)c(O)c2CCc2ccc(F)cc2)CC1 [Compound I-220, tert-butyl 4-{4-[2-(4-fluorophenyl)ethyl]-5-hydroxy-1-{3H-imidazo[4,5-b]pyridin-2-yl}-1H-pyrazol-3-yl}piperidine-1-carboxylate] | 9.8 | 100 | 7.24E- 03 | 3.95 | 6.92E + 00 minutes | 9.8 | 103.6 | 0.283 | 3.95 | Kd (HIV-1 NefNL4-3; [9]): 3.82 µM
17 | CC(C)(C)OC(=O)N1CCC(c2nn(-c3nc4ccncc4[nH]3)c(O)c2CCc2ccc(F)cc2)CC1 [Compound I-221, tert-butyl 4-{4-[2-(4-fluorophenyl)ethyl]-5-hydroxy-1-{3H-imidazo[4,5-c]pyridin-2-yl}-1H-pyrazol-3-yl}piperidine-1-carboxylate] |  |  |  |  |  | 10.6 | 103.1 | 12.8 |  | 
